tested on: Myzus persicae; experiment: Myzus persicae spray test (Chinese cabbage leaf discs); format: in vivo; settings: foliar, 120 h, 500 g/ha, after 5-6 days, read-out: efficacy
Description: Myzus persicae—Spray Test Solvent: 78 parts by weight of acetone • • 1.5 parts by weight of dimethylformamide Emulsifier: alkylaryl polyglycol ether To produce a suitable preparation of active compound, 1 part by weight of active compound is dissolved using the specified parts by weight of solvent and made up with water containing an emulsifier concentration of 1000 ppm until the desired concentration is attained. To produce further test concentrations, the formulation is diluted with emulsifier-containing water. Discs of Chinese cabbage leaves (Brassica pekinensis) infested by all stages of the green peach aphid (Myzus persicae) are sprayed with an active compound preparation of the desired concentration. After 5-6 days, the efficacy in % is determined. 100% means that all the aphids have been killed; 0% means that no aphids have been killed.

SMILES	pest or weed control at 500 g/ha
Cn1cc(C(=O)NS(=O)(=O)c2ccccc2C(F)(F)F)nc1-c1c(F)cc(F)cc1F [Example 5]	90%
Cn1cc(C(=O)NS(=O)(=O)c2c(F)cccc2F)nc1-c1c(Cl)cccc1Cl [Example 24]	90%
Cn1cc(C(=O)NS(C)(=O)=O)nc1-c1ccccc1Cl [Example 65]	90%
CS(=O)(=O)NC(=O)c1cn(-c2cccc(Cl)c2)c(-c2ccccc2Cl)n1 [Example 72]	90%
Cn1cc(C(=O)NS(=O)(=O)CC(F)(F)F)nc1-c1c(Cl)cccc1Cl [Example 80]	90%
Cn1cc(C(=O)NS(C)(=O)=O)nc1-c1c(Cl)cccc1Cl [Example 83]	90%
Cn1cc(C(=O)NS(=O)(=O)CC(F)(F)F)nc1-c1c(F)cccc1F [Example 84]	100%
CCS(=O)(=O)NC(=O)c1cn(C)c(-c2c(F)cccc2F)n1 [Example 86]	100%
CCS(=O)(=O)NC(=O)c1cn(C)c(-c2ccccc2C)n1 [Example 89]	90%
Cn1cc(C(=O)NS(=O)(=O)CC(F)(F)F)nc1-c1ccccc1F [Example 90]	100%
CCc1[nH]c(-c2ccccc2Cl)nc1C(=O)NS(=O)(=O)C(C)C [Example 121]	90%
CCc1[nH]c(-c2cccc(OC)c2)nc1C(=O)NS(=O)(=O)c1ccccc1Cl [Example 122]	90%
CCc1[nH]c(-c2cc(F)cc(F)c2)nc1C(=O)NS(=O)(=O)C(C)C [Example 127]	90%
COc1cc(C)c(S(=O)(=O)NC(=O)c2cn(C)c(-c3c(F)cccc3F)n2)cc1C [Example 138]	100%
Cc1[nH]c(C(=O)NS(=O)(=O)c2ccccc2Cl)nc1-c1c(F)cccc1F [Example 145]	90%
CCOc1ccccc1S(=O)(=O)NC(=O)c1cn(C)c(-c2c(F)cccc2Cl)n1 [Example 154]	90%
COc1ccc(Cl)c(S(=O)(=O)NC(=O)c2cnc(-c3c(F)cccc3F)n2C)c1 [Example 160]	90%

tested on: Myzus persicae; experiment: Myzus persicae oral test; format: in vivo; settings: 120 h, 20 ppm, oral uptake, after 5 days, read-out: efficacy
Description: Myzus persicae—Oral Test Solvent: 100 parts by weight of acetone To produce a suitable preparation of active compound, 1 part by weight of active compound is dissolved using the specified parts by weight of solvent and made up with water until the desired concentration is attained. 50 μl of the active compound preparation are transferred into microtitre plates and made up to a final volume of 200 μl with 150 μl of IPL41 insect medium (33%+15% sugar). Subsequently, the plates are sealed with parafilm, which a mixed population of green peach aphids (Myzus persicae) within a second microtitre plate is able to puncture and imbibe the solution through it. After 5 days, the efficacy in % is determined. 100% means that all the aphids have been killed; 0% means that no aphids have been killed.

SMILES	pest or weed control at 20 ppm
CCc1[nH]c(-c2cccc(Cl)c2)nc1C(=O)NS(=O)(=O)c1cc(OC)ccc1Cl [Example 130]	90%
CCc1[nH]c(-c2cccc(Cl)c2)nc1C(=O)NS(=O)(=O)C(C)C [Example 131]	90%
Cn1cc(C(=O)NS(=O)(=O)c2ccccc2N)nc1-c1ccccc1Cl [Example 132]	100%
CCc1[nH]c(-c2cccc(Br)c2)nc1C(=O)NS(=O)(=O)c1ccccc1Cl [Example 136]	90%
CCc1[nH]c(-c2cc(Cl)cc(Cl)c2)nc1C(=O)NS(=O)(=O)c1ccccc1OC [Example 137]	90%
Cc1ccccc1S(=O)(=O)NC(=O)c1cnc(-c2c(F)cccc2F)n1C [Example 163]	100%
CCCOc1ccc(Cl)c(S(=O)(=O)NC(=O)c2cn(C)c(-c3c(F)cccc3F)n2)c1 [Example 180]	100%
COc1ccc(Cl)c(S(=O)(=O)NC(=O)c2nc(-c3c(F)cccc3F)[nH]c2C)c1 [Example 191]	90%
CCc1c(C(=O)NS(=O)(=O)c2ccccc2Br)nc(-c2c(F)cccc2F)n1C [Example 198]	100%
COc1ccc(Cl)c(S(=O)(=O)NC(=O)c2nc(-c3ccccc3Cl)c(C)[nH]2)c1 [Example 201]	100%
CCc1[nH]c(-c2c(C)cccc2C)nc1C(=O)NS(=O)(=O)c1ccccc1Cl [Example 208]	90%
CSc1ccccc1-c1nc(C(=O)NS(=O)(=O)c2ccccc2Cl)cn1C [Example 213]	100%
CSc1ccccc1-c1nc(C(=O)NS(=O)(=O)c2ccccc2C)cn1C [Example 214]	100%
COc1ccccc1S(=O)(=O)NC(=O)c1cn(C)c(-c2ccccc2SC)n1 [Example 215]	90%
Cc1[nH]c(-c2cccc(Cl)c2)nc1C(=O)NS(=O)(=O)C(C)C [Example 236]	90%
CCc1[nH]c(-c2ccc(F)cc2F)nc1C(=O)NS(=O)(=O)c1ccccc1C [Example 245]	100%
CCc1[nH]c(-c2cccc(C(F)(F)F)c2)nc1C(=O)NS(=O)(=O)c1ccccc1Cl [Example 247]	100%
CCc1[nH]c(-c2cccc(C(F)(F)F)c2)nc1C(=O)NS(=O)(=O)C(C)C [Example 248]	100%
Cc1cc(C(=O)NS(=O)(=O)c2ccc(Cl)s2)nn1-c1cc(Cl)ccc1Cl [Example 299]	90%

SMILES	pest or weed control at 20 ppm
Cc1cc(C(=O)NS(=O)(=O)c2ccccc2Br)nn1-c1cccc(Cl)c1Cl [Example 302]	100%
Cc1ccc(F)cc1S(=O)(=O)NC(=O)c1cc(C)n(-c2cccc(Cl)c2Cl)n1 [Example 305]	90%
Cc1cccc(Cl)c1S(=O)(=O)NC(=O)c1cc(C)n(-c2cccc(Cl)c2Cl)n1 [Example 306]	100%
COc1ccc(Br)cc1S(=O)(=O)NC(=O)c1nc(-c2c(F)cccc2F)n(C)n1 [Example 327]	90%
Cn1cc(C(=O)NS(=O)(=O)c2cnc(Cl)s2)nc1-c1c(F)cccc1F [Example 345]	90%
Cc1nn(C)c(Cl)c1S(=O)(=O)NC(=O)c1cn(C)c(-c2c(F)cccc2F)n1 [Example 348]	100%
Cc1cccc(OS(C)(=O)=O)c1S(=O)(=O)NC(=O)c1cn(C)c(-c2c(F)cccc2F)n1 [Example 368]	90%
O=C(NS(=O)(=O)c1ccccc1Cl)c1c[nH]c(-c2c(F)cccc2F)n1 [Example 412]	90%
Cc1[nH]c(C(=O)NS(=O)(=O)c2ccccc2Cl)nc1-c1ccccc1Cl [Example 418]	90%
Cn1cc(C(=O)NS(=O)(=O)c2cc(C#N)ccc2Cl)nc1-c1c(F)cccc1F [Example 452]	100%
CCc1[nH]c(-c2cc(C)cc(C)c2)nc1C(=O)NS(=O)(=O)c1ccccc1C [Example 470]	100%
COc1ccc(OC)c(S(=O)(=O)NC(=O)c2cn(C)c(-c3ccccc3S(C)(=O)=O)n2)c1 [Example 509]	100%
COc1ccccc1S(=O)(=O)NC(=O)c1cn(C)c(-c2csc3ccccc23)n1 [Example 531]	90%
CCc1[nH]c(-c2ccc(Cl)cc2)nc1C(=O)NS(=O)(=O)C(C)C [Example 601]	90%
CC(C)c1cccc(-c2nc(C(=O)NS(=O)(=O)c3ccccc3Cl)c(C(C)C)[nH]2)c1 [Example 612]	100%
COc1ccc(Cl)c(S(=O)(=O)NC(=O)c2nc(-c3ccc(Cl)c(Cl)c3)[nH]c2C)c1 [Example 615]	100%
Cc1[nH]c(-c2cccc(C(C)C)c2)nc1C(=O)NS(=O)(=O)c1ccccc1Cl [Example 617]	100%
COc1ccc(Cl)c(S(=O)(=O)NC(=O)c2nc(-c3cccc(Cl)c3)[nH]c2C)c1 [Example 619]	100%
Cc1[nH]c(-c2cccc(C(C)C)c2)nc1C(=O)NS(=O)(=O)C(C)C [Example 620]	90%

From patent US20200288710A1, “SUBSTITUTED SULPHONAMIDES FOR CONTROLLING ANIMAL PESTS” (BAYER CROPSCIENCE AKTIENGESELLSCHAFT, priority 2016, published 2020)
